Reference: US20050277107A1, “Systems and methods for cell preservation” (priority 2002, published 2005)

Tests used:
[1] = Glass transition temperature of extracellular trehalose solution (modulated temperature DSC); format: physicochemical; details: after 18 h of dried storage at 4° C.
Method: Thus, the extracellular trehalose solution had vitrified by 18 h. After vitrification (glass formation) of the solution containing the cells had occurred, the cells were able to retain their plasma membrane integrities, even after days to weeks in storage at relatively cooler storage temperatures.

[2] = system: NIH 3T3 murine fibroblasts; assay: Post-rehydration plasma membrane integrity (SYTO 13/ethidium bromide dual fluorescent assay) of dried cells; format: cell-based; details: for moisture content above which membrane integrity remained relatively stable: hypertonic (528 mOsm/kg) 0.2 M trehalose
Method: (§1) NIH 3T3 murine fibroblasts were cultured in Dulbecco's Modified Eagle's medium (DMEM) supplemented with 10% v/v bovine calf serum and 1% v/v penicillin-streptomycin at 37° C. with 10% CO2 in air. At 70% confluence, the cells were trypsinized and resuspended in culture medium. 20 microliter droplets of cells were plated onto sterile 12 mm circular glass cover slips and cultured for 30 min at 37° C. to allow for loose attachment of the fibroblasts to the cover slip. In some cases, poly-L-lysine-coated cover slips were used for attaching the cells to the cover slips. The cover slips were precoated with poly-L-lysine to assure uniform surface characteristics as follows. The cover slips were first prepared by soaking them in aqua regia overnight. The next day, the cover slips were rinsed in 50 mM NaHCO3, then in de-ionized H2O. The cover slips were then baked for at least 3 h at 150° C. The cover slips were removed from the oven and floated in a 1 mg/ml solution of poly-L-lysine for 5 min on each side, then rinsed in de-ionized H2O and air-dried.
(§2) Trehalose was inserted into the fibroblasts as follows. The fibroblasts were washed with 30 microliters of a HEPES-buffered saline solution supplemented with EDTA, followed by three washes with 30 microliters of RPMI-1640. The cells were then porated by exposure to an RPMI-1640 solution containing 25 micrograms/ml of a pore-forming protein, H5 alpha-hemolysin, for 10 min. Intracellular trehalose was inserted into the porated cells by exposure to either a hypertonic (RPMI-1640+0.2 M trehalose; 528 mOsm/kg) or an isotonic (RPMI-1640 diluted in H2O+0.2 M trehalose; 310 mOsm/kg) trehalose solution for 45 min. The pores created by H5 alpha-hemolysin in the fibroblasts were closed by adding 25 micromolar ZnSO4 to the solution. The fibroblasts were then washed in an (H5-free) hypertonic or an isotonic trehalose solution. The osmolality of the solution was measured using a freezing-point depression osmometer. All experimental manipulations were performed at room temperature, unless otherwise indicated.
Techniques used in these experiments for drying cells included evaporative drying (using natural convection) or forced laminar convective flow. The natural convection protocol is generally as follows. The approximate pre-desiccation dimensions of the 20 microliter droplet of media containing the fibroblasts on the glass cover slip was 6 mm diameter×1 mm height. The cover slips were placed in airtight acrylic boxes containing CaSO4/CoCl2 desiccant. The cover slips were stored there for different lengths of time, typically ranging from a few hours to several weeks. […] The moisture content of each droplet was determined gravimetrically from the difference in the droplet weight before and after drying, and was expressed as a percentage of anhydrous dry weight. Anhydrous dry weights were determined by baking a representative droplet overnight at 110° C. and measuring the droplet weights. […] The cells within the droplet were then cultured overnight (˜18 h) and assessed for viability.
The integrity of the plasma membrane of the cells after rehydration was determined using a dual fluorescent assay as follows. […] The cells were imaged on a fluorescent microscope and analyzed. The membrane integrity (MI) for the cells was calculated as the percentage of SYTO® 13-positive cells in the sample. […]

[3] = system: NIH 3T3 murine fibroblasts; assay: Post-rehydration cell growth (percentage of viable cells versus undried controls after overnight culture); format: cell-based
Method: as §1
as §2, with “All experimental manipulations were performed at room temperature, unless otherwise indicated.” left out
Techniques used in these experiments for drying cells included evaporative drying (using natural convection) or forced laminar convective flow. […] The moisture content of each droplet was determined gravimetrically from the difference in the droplet weight before and after drying, and was expressed as a percentage of anhydrous dry weight. Anhydrous dry weights were determined by baking a representative droplet overnight at 110° C. and measuring the droplet weights. […] The cells within the droplet were then cultured overnight (˜18 h) and assessed for viability.
Following overnight culture, the percentage of viable cells in droplets that were dried and then recovered, compared to undried controls, was used as a measure of cell growth. Viable fibroblasts could be readily identified through their flattening, migratory, and mitotic behavior. […]

[4] = system: 3T3 fibroblasts; assay: Long-term stability of membrane integrity during dried storage (exponential decay curve fit); format: cell-based, murine; details: 0.4 M intracellular trehalose
Method: The integrity of the plasma membrane of the cells after rehydration was determined using a dual fluorescent assay as follows. SYTO® 13 (Molecular Probes, Inc. Eugene, Oreg.), a permeant live cell nucleic acid dye (25 micromolar), and ethidium bromide (EB; 25 micromolar) were used to differentially stain the cells. The cells were imaged on a fluorescent microscope and analyzed. The membrane integrity (MI) for the cells was calculated as the percentage of SYTO® 13-positive cells in the sample.
The membrane integrity of 3T3 fibroblasts loaded with 0.4 M trehalose intracellularly was measured for periods of time extending out to several weeks (FIG. 5). The fibroblasts were prepared using methods similar to those described in Example 1. The data in FIG. 5 represents experiments where cells were removed from storage, rehydrated, analyzed, and then discarded. The cells were stored at temperatures of −80° C., −20° C., 4° C., 25° C., and 37° C., over CaSO4 desiccant (about 5% relative humidity). The 0.4 M trehalose condition was chosen in this example since previous experiments had shown that cells containing 0.4 M trehalose had high MI values after overnight storage.
Thus, the rate at which the membrane integrity decays appears to be a function of the storage temperature.

[5] = system: human fibroblast cells (HFF1 cells); assay: Cell viability after vacuum desiccation and rehydration on cell adhesion surfaces; format: cell-based; details: dried on standard tissue culture surfaces to about 20% moisture, post-rehydration on coated surface (Tissue Dried)
Method: In this set of experiments, human fibroblast cells (HFF1 cells) were desiccated under vacuum at room temperature on various surfaces, and in some cases, in the presence of 0.2 M extracellular trehalose. The fibroblasts were dried to about 20% moisture content. The fibroblasts were then recovered by rehydrating them, placing them into culture, and assessing their viability about 24 hours later, using techniques similar to those described in Example 1.

Molecule: OC[C@H]1O[C@H](O[C@H]2O[C@H](CO)[C@@H](O)[C@H](O)[C@H]2O)[C@H](O)[C@@H](O)[C@@H]1O [trehalose]
- glass transition temperature of the extracellular trehalose [1]: 5 to 10 °C
- moisture content above which membrane integrity remained relatively stable ([2]; extracellular trehalose only): greater than 15%
- moisture content above which membrane integrity remained relatively stable ([2]; intracellular and extracellular trehalose): greater than 10%
- membrane integrity (MI) after drying, internal plus external trehalose versus no internal trehalose ([2]; hypertonic solution): higher MI values
- moisture content below which gross membrane damage was observed ([2]; isotonic (310 mOsm/kg) solutions of 0.2 M trehalose): 5-8%
- intact cells (membrane integrity) ([2]; isotonic trehalose solutions, moisture contents as low as 5-8%): about 80%
- percentage of cell growth, isotonic intracellular and extracellular trehalose versus isotonic extracellular trehalose only ([3]; dried to about 10% moisture content, p=0.004): significant improvement
- cells viable (cell growth) following drying ([3]; hypertonic trehalose solutions, dried to about 10% moisture content): Less than 20%
- percentage of cell growth ([3]; isotonic 0.2 M extracellular trehalose only, dried to 10% moisture content): less than 30%
- cells capable of growth after recovery and overnight culture ([3]; isotonic 0.2 M intracellular and extracellular trehalose, moisture contents greater than about 10%): Approximately 80%
- decay time constant of membrane integrity ([4]; storage at 4° C. over CaSO4 desiccant): 54 days
- decay time constant of membrane integrity ([4]; storage at 25° C. over CaSO4 desiccant): 7.5 days
- decay time constant of membrane integrity ([4]; storage at 37° C. over CaSO4 desiccant): 2.0 days
- decay time constant of membrane integrity ([4]; storage at -20° C. over CaSO4 desiccant): 138 days
- decay time constant of membrane integrity ([4]; storage at -80° C. over CaSO4 desiccant): 147 days

Molecule: collagen
- cell viability about 24 hours after rehydration [5]: Increases in cell viability

Molecule: fibronectin
- cell viability about 24 hours after rehydration [5]: Increases in cell viability

Molecule: laminin
- cell viability about 24 hours after rehydration [5]: Increases in cell viability
